Assay results taken from patent publication EP1018866B1, “COMPOSITIONS AND METHODS FOR THE PRESERVATION OF LIVING TISSUES” (Biostore New Zealand Limited, priority 1996, dated 1997).

Tested on: mouse embryos
Assay: Storage of mouse embryos in Solution 70/30 at 4 °C with or without sodium butyrate pretreatment
Format: cell-based
Protocol: Mouse embryos were incubated with either sodium butyrate or a Class II solute at either room temperature, 30 °C or 4 °C prior to storage in Solution 70/30 for up to five days at 4 °C. […] Sodium butyrate replaced sodium chloride at the same concentration in PBS.

Question: What does the source list for `CCCC(=O)[O-].[Na+]` [sodium butyrate]?
Answer: embryos hatched (pretreatment with higher concentrations of sodium butyrate, 5 days of storage in Solution 70/30): up to 70%; embryos to hatch (pretreatment with sodium butyrate, three days of storage in Solution 70/30 at 4 °C): up to 80%
